Data as given in paper PMC6825211 (Nature Communications, 2019).
Values joined by “and” are separate entries in the source; they are usually repeats but may differ in a detail not shown here. Equal values may be shown once.

Key:
[1] = system: INS-1E cells; assay: Western blot of pMST1, caspase-3/PARP cleavage, PDX1, BIM under diabetogenic conditions; assay type: cell-based, rat
Experimental: . pThr183), caspase-3 and PARP cleavage, PDX1, tubulin, and actin were analyzed by western blotting. Representative Western blots and pooled quantitative densitometry analysis are shown from three independent cell line experiments (n = 3). […]; all by Student’s t tests.
. pThr183), caspase-3 and PARP cleavage, and BIM and actin were analyzed by western blotting. Representative Western blots (b) and pooled quantitative densitometry analysis (c) are shown from 3–6 independent culture dishes (n = 3–6). […]; all by Student’s t tests.
Human islets were isolated from eight pancreases of nondiabetic organ donors at PRODO Labs and at Lille University and cultured on extracellular matrix-coated dishes (Novamed, Jerusalem, Israel)[62] or on Biocoat Collagen I coated dishes (#356400, Corning, ME, USA). […] The clonal rat β-cell line INS-1E was kindly provided by Dr. Claes Wollheim, Geneva & Lund University. Human islets were cultured in complete CMRL-1066 (Invitrogen) medium at 5.5 mM glucose, mouse islets and INS-1E cells at complete RPMI-1640 medium at 11.1 mM glucose. […] . Palmitic acid (Sigma) was dissolved at 10 mmol/l in RPMI-1640 medium containing 11% fatty acid–free bovine serum albumin (BSA) (Sigma) under an N2-atmosphere and added to the culture at 0.5 mM[64]. […] . Isolated human islets or INS-1E cells were infected with adenovirus carrying LacZ as control or MST1 or LATS2 (all Vector Biolabs), at a multiplicity of infection of 100 (human islets) or 20 (INS-1E) for 4 h[11]. Adenovirus was subsequently washed off with PBS and replaced by fresh medium with 10% FBS and the respective analysis performed after 48 h post infection.

[2] = system: MLD–STZ C57BL/6J mice; assay: MLD–STZ model: insulin secretion during ipGTT (stimulatory index); assay type: in vivo, mouse; details: glucose-stimulated, i.p.
Experimental: C57Bl/6J mice were injected with 40 mg/kg streptozotocin or citrate buffer for 5 consecutive days. […] In d, basal glucose values were normalized to 100%. e Insulin secretion measured from retro-orbital blood draw during an ipGTT measured before (0 min) and 15 min after glucose injection; data are expressed as the ratio of secreted insulin at 15 min/0 min (stimulatory index). f The ratio of secreted insulin and glucose is calculated at fed state. g–i Mice were killed at day 35. g β-cell mass (given as percentage of the whole pancreatic section from ten sections spanning the width of the pancreas) and quantitative analyses from triple staining for h TUNEL or i Ki67, insulin, and DAPI expressed as percentage of TUNEL- or Ki67-positive β-cells ±SEM. An average number of 2331 (h), or 26369 (i) β-cells were counted. n = 9 mice/group for (a); n = 4–12 for (b); n = 5–15 for (c) and (d); n = 12–19 for (e); n = 8–14 for (f); n = 4–9 for (g); n = 4–11 for (h); and n = 6–11 mice/groupfor (i); all from three independent experiments).
For intraperitoneal glucose tolerance tests, mice were fasted 12 h overnight and injected i.p. with glucose (40%; B.Braun, Melsungen, Germany) at a dose of 1 g/kg body weight. […] Insulin secretion was measured before (0 min) and after (15 and 30 min) i.p. injection of glucose (2 g/kg) and measured by using ultrasensitive mouse Elisa kit (ALPCO Diagnostics, Salem, NH).

[3] = system: obese diabetic Lepr db/db mice; assay: db/db model: random fed blood glucose; assay type: in vivo, mouse; details: for glycemia: dbdb mice
From the text: Data are representative of six mice per group (n = 6 for (a–f)). g–j Mice were killed at day 31. g β-cell mass (given as percentage of the whole pancreatic section from ten sections spanning the width of the pancreas; n = 5 mice/group) and quantitative analyses from triple stainings for (h) TUNEL, (i) Ki67, (j) pHH3, and (k) nuclear PDX1 expression, insulin, and DAPI expressed as percentage of TUNEL-, Ki67-, pHH3-, or nuclear PDX1-positive β-cells ± SEM. An average number of 13667 (h), 5937 (i), 7108 (j), or 4330 (k) β-cells were counted from n = 3–5 (h, i, k) or n = 5–6 (j) mice/group.

[4] = clinical trials; cited from earlier work
[5] = molecular target: ABL1 (Homo sapiens, UniProt P00519); assay: Nanosyn kinase profiling, mobility shift assay; details: read-out: % inhibition by neratinib
ABL1, sequence (P00519 whole entry): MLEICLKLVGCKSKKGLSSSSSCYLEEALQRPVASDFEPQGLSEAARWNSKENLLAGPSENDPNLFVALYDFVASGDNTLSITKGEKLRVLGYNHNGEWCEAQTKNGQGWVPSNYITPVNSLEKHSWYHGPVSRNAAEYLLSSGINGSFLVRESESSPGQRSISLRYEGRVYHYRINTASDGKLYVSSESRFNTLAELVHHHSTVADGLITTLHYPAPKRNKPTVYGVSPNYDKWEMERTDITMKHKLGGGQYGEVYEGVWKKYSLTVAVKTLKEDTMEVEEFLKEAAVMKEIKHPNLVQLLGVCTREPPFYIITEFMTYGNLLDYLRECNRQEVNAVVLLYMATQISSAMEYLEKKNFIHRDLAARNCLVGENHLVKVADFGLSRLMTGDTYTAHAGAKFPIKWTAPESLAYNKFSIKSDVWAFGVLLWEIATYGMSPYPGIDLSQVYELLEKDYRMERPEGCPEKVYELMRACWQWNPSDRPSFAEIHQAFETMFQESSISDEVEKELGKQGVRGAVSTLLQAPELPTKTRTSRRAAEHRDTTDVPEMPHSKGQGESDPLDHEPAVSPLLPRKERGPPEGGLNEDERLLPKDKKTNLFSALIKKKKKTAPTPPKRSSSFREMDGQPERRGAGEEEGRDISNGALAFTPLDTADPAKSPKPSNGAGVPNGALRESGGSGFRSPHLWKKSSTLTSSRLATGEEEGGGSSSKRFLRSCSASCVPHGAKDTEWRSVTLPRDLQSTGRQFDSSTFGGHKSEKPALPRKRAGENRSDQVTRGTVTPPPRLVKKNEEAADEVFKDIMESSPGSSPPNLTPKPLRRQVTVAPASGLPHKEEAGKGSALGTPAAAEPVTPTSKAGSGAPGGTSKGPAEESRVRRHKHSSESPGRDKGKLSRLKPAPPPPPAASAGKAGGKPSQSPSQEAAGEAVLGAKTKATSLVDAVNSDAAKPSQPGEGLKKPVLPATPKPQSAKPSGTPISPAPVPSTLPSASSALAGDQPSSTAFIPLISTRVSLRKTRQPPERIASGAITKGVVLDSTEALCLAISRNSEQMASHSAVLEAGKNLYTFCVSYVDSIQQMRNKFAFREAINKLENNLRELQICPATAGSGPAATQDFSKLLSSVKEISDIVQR

[6] = molecular target: CDK2 (Homo sapiens, UniProt P24941); assay: Nanosyn kinase profiling, mobility shift assay; details: read-out: % inhibition by neratinib
[7] = molecular target: JAK1 (Homo sapiens, UniProt P23458); assay: Nanosyn kinase profiling, mobility shift assay; details: read-out: % inhibition by neratinib
JAK1, sequence (P23458 whole entry): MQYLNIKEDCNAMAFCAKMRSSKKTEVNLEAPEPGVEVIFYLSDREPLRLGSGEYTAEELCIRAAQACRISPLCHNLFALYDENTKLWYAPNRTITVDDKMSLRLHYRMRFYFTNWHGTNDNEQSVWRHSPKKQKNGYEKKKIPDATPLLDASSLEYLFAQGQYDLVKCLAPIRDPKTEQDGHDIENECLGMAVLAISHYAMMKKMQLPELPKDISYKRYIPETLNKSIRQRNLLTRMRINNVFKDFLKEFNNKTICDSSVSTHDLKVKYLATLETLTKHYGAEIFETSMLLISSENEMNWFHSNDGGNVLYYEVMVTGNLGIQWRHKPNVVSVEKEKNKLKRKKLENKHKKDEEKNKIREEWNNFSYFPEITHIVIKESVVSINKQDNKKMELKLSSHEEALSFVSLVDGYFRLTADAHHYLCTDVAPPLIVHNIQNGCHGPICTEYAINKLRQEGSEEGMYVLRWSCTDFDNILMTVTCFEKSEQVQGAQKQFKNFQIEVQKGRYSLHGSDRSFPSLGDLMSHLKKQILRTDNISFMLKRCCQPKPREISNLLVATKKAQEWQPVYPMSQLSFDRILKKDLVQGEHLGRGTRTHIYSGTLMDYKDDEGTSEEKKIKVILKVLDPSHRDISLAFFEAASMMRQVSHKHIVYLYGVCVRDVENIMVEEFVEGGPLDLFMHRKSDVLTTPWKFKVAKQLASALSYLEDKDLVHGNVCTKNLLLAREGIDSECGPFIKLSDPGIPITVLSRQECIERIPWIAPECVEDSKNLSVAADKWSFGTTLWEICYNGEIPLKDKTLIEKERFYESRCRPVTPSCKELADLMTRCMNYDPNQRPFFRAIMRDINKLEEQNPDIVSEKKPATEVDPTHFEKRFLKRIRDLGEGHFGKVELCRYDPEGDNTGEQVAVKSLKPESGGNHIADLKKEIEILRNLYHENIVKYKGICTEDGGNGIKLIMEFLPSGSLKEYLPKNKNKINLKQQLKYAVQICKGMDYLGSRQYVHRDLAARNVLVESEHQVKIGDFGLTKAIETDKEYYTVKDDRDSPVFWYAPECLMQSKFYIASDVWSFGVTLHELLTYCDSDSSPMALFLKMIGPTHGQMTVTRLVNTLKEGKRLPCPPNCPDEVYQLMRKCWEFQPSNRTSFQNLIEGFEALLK

[8] = molecular target: MEK6 (Homo sapiens, UniProt P52564); assay: Nanosyn kinase profiling, mobility shift assay; details: read-out: % inhibition by neratinib
MEK6, sequence (P52564 whole entry): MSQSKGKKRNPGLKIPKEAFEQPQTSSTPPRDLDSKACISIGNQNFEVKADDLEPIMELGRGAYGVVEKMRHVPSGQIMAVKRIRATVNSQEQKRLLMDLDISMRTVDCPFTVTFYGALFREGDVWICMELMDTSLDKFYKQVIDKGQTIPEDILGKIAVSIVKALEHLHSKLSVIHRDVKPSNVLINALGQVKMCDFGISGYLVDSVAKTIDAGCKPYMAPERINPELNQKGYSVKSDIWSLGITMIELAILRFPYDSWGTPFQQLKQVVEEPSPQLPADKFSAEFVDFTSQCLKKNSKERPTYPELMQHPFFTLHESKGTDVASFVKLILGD

[9] = molecular target: PKC-ALPHA (Homo sapiens, UniProt P17252); assay: Nanosyn kinase profiling, mobility shift assay; details: read-out: % inhibition by neratinib
[10] = molecular target: PYK2 (Homo sapiens, UniProt Q14289); assay: Nanosyn kinase profiling, mobility shift assay; details: read-out: % inhibition by neratinib
PYK2, sequence (Q14289 whole entry): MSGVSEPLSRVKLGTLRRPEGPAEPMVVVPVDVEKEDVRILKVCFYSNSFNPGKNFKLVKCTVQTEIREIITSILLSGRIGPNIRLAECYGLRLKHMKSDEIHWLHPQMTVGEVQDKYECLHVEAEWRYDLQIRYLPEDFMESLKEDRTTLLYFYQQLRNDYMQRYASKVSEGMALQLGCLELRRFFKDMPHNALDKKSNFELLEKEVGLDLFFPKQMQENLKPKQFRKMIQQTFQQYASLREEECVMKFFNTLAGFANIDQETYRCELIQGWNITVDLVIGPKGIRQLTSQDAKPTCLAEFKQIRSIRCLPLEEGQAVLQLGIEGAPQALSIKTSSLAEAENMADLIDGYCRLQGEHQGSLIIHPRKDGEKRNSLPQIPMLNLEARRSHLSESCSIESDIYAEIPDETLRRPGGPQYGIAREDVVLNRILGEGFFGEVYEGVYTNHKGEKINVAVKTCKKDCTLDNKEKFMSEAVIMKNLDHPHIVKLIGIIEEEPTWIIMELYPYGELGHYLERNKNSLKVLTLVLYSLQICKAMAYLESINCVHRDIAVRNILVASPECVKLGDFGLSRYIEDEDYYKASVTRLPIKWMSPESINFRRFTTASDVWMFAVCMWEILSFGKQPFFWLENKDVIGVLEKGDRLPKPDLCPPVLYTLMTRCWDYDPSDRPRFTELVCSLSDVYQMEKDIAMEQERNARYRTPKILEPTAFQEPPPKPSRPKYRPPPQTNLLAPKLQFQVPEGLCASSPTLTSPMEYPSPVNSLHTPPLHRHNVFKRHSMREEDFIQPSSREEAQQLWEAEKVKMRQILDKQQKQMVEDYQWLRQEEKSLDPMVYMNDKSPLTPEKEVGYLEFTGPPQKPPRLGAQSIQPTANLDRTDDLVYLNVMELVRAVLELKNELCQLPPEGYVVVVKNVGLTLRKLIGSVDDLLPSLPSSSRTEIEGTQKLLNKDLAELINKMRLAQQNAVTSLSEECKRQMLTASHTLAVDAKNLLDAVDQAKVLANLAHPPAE

SMILES: CCOc1cc2ncc(C#N)c(Nc3ccc(OCc4ccccn4)c(Cl)c3)c2cc1NC(=O)/C=C/CN(C)C [neratinib]
- PDX1 expression reduced by elevated glucose ([1]; 22.2 mM glucose, 72 h): restored PDX1 expression
- H2O2- and high glucose/palmitate-induced MST1 activation and apoptosis (caspase-3 and PARP cleavage) ([1]; 72 h): potently inhibited
- mitochondrial BIM induction under diabetic conditions ([1]; HG/Pal, 10 μM, 24 h): significantly reduced
- stress-induced MST1 activation and caspase-3 and PARP cleavage ([1]; HG/Pal, 10 μM, 24 h): strongly counteracted
- impaired insulin secretion in STZ-treated mice [2]: significantly improved
- blood glucose, start to after 30 days of therapy ([3]; db/db neratinib group, no significant increase): 312 to 384 mg/dL
- blood glucose levels after 4 weeks ([3]; db/db, 5 mg/kg i.p. daily): did not significantly increase
- glycemia ([3]; 0 days after NERA injection, MEAN): 311.667 mg/dL
- glycemia ([3]; 0 days after NERA injection, individual mice): 219 mg/dL and 243 mg/dL and 260 mg/dL and 443 mg/dL and 266 mg/dL and 439 mg/dL
- glycemia ([3]; 31 days after NERA injection, individual mice): 405 mg/dL and 313 mg/dL and 425 mg/dL and 317 mg/dL and 380 mg/dL and 462 mg/dL
- most common neratinib-associated adverse events [4]: diarrhea, vomiting, and nausea
- inhibition at 10 µM [5]: 36%
- inhibition at 10 µM [6]: 9%
- inhibition at 10 µM [7]: 5%
- inhibition at 10 µM [8]: 9%
- inhibition at 10 µM [9]: 7%
- inhibition at 10 µM [10]: 41%
